Columns and labels:
PKCδ = molecular target: T1, PKCδ (Homo sapiens, UniProt Q05655); experiment: kinase profiler, PKCδ; assay type: biochemical; details: 10 μM compound, 100 μM ATP, mean of % control
T1 construct: purchased Upstate Biotechnologies (kinase profiler service)
Protocol: (§1) Compound 45 was tested for its ability to function as a kinase inhibitor using the kinase profiler service from Upstate Biotechnologies. The general protocol employed is as follows: recombinant kinases were incubated with specific substrates, 10 mM MgAcetate, and [γ-^33P-ATP]. The reaction was initiated by the addition of MgATP mix. After incubation at room temperature for 40 minutes, the reaction was stopped by the addition of 5 μl of a 3% phosphoric acid solution. 10 μl of the reaction was then spotted on to a P30 filtermat and washed 3 times for 5 min. in 75 mM phosphoric acid and once in methanol prior to drying and scintillation counting. Each reaction was performed in duplicate with 100 μM ATP −/+10 μM compound 45. Results are presented in Table IV and are expressed as the mean of % control (no compound). PI 3-kinase-γ (PI3K-γ) activity was determined with the PIProfiler™ assay, which measures the binding of the GRP1 pleckstrin homology (PH) domain to PIP3, the product of PI3K acting on its physiological substrate PIP2.

EGFR = molecular target: T2, EGFR (Homo sapiens, UniProt P00533); experiment: kinase profiler, EGFR; assay type: biochemical; details: 10 μM compound, 100 μM ATP, mean of % control
T2 construct: purchased Upstate Biotechnologies (kinase profiler service)
Protocol: as §1

PDGFRα = molecular target: T3, PDGFRα (Homo sapiens, UniProt P16234); experiment: kinase profiler, PDGFRα; assay type: biochemical; details: 10 μM compound, 100 μM ATP, mean of % control
T3 construct: purchased Upstate Biotechnologies (kinase profiler service)
Protocol: as §1

SAPK2b = molecular target: T4, SAPK2b (Homo sapiens, UniProt Q15759); experiment: kinase profiler, SAPK2b; assay type: biochemical; details: 10 μM compound, 100 μM ATP, mean of % control
T4 construct: purchased Upstate Biotechnologies (kinase profiler service)
T4 sequence (Q15759 whole entry): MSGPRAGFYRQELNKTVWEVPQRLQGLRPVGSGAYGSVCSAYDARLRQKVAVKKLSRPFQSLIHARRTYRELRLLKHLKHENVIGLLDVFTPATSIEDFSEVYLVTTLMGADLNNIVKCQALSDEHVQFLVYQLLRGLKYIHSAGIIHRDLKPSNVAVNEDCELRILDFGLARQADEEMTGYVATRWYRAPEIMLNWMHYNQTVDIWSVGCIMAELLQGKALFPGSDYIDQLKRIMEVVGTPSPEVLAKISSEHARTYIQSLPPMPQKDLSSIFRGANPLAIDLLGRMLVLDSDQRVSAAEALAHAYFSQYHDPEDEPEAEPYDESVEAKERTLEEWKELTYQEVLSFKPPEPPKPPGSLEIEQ
Protocol: as §1

[1] = tested on: HT29 colon adenocarcinoma cells; experiment: morphological changes (vacuoles), HT29; assay type: cell-based, human; details: treatment for 24 hours
Source text: These vacuoles are not formed in DMSO- or doxorubicin-treated cells. Moreover, the nuclear membrane is no longer evident in the phase-contrast images of cells treated with compound 45, even though the nucleus is still intact, as shown by DAPI staining.

Fyn = molecular target: T5, Fyn (Homo sapiens, UniProt P06241); experiment: kinase profiler, Fyn; assay type: biochemical; details: 10 μM compound, 100 μM ATP, mean of % control
T5 construct: purchased Upstate Biotechnologies (kinase profiler service)
Protocol: as §1

Tie2 = molecular target: T6, Tie2 (Homo sapiens, UniProt Q02763); experiment: kinase profiler, Tie2; assay type: biochemical; details: 10 μM compound, 100 μM ATP, mean of % control
T6 construct: purchased Upstate Biotechnologies (kinase profiler service)
Protocol: as §1

Abl = molecular target: T7, Abl (Homo sapiens, UniProt P00519); experiment: kinase profiler, Abl; assay type: biochemical; details: 10 μM compound, 100 μM ATP, mean of % control
T7 construct: purchased Upstate Biotechnologies (kinase profiler service)
Protocol: as §1

PI3K-β = molecular target: T8, PI3K-β (Homo sapiens, UniProt P42338); experiment: kinase profiler, PI3K-β; assay type: biochemical; details: 10 μM compound, mean of % control
T8 construct: purchased Upstate Biotechnologies (kinase profiler service)
T8 sequence (P42338 whole entry): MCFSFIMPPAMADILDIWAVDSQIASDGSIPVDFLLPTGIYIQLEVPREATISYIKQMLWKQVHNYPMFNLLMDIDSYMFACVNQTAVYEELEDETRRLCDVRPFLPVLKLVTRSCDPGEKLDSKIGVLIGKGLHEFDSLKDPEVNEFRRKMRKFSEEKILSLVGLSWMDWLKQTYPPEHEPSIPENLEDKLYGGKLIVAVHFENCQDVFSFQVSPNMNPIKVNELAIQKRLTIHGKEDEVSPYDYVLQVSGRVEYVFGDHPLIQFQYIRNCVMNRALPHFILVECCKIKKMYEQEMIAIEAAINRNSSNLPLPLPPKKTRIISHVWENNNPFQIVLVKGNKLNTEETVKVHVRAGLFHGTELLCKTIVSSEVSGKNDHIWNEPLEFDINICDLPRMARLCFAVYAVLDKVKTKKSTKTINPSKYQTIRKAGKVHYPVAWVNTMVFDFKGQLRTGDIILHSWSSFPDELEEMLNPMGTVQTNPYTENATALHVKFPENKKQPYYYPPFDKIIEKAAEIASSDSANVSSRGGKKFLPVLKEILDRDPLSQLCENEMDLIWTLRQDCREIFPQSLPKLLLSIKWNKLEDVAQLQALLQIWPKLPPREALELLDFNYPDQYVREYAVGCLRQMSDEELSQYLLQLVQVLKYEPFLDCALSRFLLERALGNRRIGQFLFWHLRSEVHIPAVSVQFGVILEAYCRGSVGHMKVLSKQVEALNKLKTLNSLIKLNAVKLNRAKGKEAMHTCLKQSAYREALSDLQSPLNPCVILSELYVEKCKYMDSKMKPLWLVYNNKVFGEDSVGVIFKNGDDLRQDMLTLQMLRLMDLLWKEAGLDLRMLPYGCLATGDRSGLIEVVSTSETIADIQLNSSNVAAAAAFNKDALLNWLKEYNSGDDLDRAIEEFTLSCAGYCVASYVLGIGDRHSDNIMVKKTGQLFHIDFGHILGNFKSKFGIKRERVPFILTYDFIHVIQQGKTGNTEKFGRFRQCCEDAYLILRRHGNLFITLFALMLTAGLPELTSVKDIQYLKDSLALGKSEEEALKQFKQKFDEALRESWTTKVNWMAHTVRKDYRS
T8 sequence (P27986 whole entry partner): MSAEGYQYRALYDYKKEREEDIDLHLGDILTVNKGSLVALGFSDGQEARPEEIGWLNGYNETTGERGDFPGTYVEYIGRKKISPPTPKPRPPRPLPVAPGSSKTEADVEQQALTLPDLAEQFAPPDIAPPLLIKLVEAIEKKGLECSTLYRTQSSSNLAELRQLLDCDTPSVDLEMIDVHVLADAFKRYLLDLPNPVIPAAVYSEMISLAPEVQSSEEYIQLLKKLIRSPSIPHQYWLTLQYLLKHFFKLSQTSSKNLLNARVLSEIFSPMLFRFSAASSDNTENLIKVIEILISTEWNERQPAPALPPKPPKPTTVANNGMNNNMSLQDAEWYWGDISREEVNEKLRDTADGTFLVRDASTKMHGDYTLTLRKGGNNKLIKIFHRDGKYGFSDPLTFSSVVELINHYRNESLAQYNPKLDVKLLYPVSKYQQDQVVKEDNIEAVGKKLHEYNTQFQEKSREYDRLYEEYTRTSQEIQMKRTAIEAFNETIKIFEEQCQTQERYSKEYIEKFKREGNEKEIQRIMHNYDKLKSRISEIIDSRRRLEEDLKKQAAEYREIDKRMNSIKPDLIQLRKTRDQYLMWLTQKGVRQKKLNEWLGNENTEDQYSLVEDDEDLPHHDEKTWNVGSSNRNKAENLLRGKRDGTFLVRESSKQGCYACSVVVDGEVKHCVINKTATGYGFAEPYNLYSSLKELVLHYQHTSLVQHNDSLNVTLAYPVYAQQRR

PAK2 = molecular target: T9, PAK2 (Homo sapiens, UniProt Q13177); experiment: kinase profiler, PAK2; assay type: biochemical; details: 10 μM compound, 100 μM ATP, mean of % control
T9 construct: purchased Upstate Biotechnologies (kinase profiler service)
Protocol: as §1

PKCζ = molecular target: T10, PKCζ (Homo sapiens, UniProt Q05513); experiment: kinase profiler, PKCζ; assay type: biochemical; details: 10 μM compound, 100 μM ATP, mean of % control
T10 construct: purchased Upstate Biotechnologies (kinase profiler service)
Protocol: as §1

renal cancer cell lines = experiment: NCI/DTP screen, renal cancer cell lines; assay type: cell-based; details: Homo sapiens; renal cancer cell lines (FIG. 10B)
Protocol: (§2) The twenty-three compounds of Formula I shown below were evaluated for their antiproliferative effects in a panel of 60 human cancer cell lines as part of the in vitro anticancer screening services provided by the DTP (Developmental Therapeutics Program) of the US National Cancer Institute (NCI) U.S. National Cancer Institute (NCI) of the National Institutes of Health (NIH) in […], Md.
(§3) The NCI conducts a standard 48/72 hour 60 cell line assay and an in vitro time course assay as described in Alley et al. (Cancer Res (1988) 48:589). In the standard 60 cell line assay, a minimum of 5 concentrations of the test compound are tested at 10-fold dilutions against 60 cell lines and cell growth is assayed at 48 and 72 hours using a sulphorhodamine B assay. For the time course analysis, tumour cells are treated with the test compound at various time points, then washed and grown in medium free of the test compound until the end of the experiment at 144 hrs. This assay employs 20% FBS to better approximate the minimum c×t (concentrations and times) test compound exposure conditions that are required to achieve activity in vivo. Cell growth is quantified by an MTT assay (similar to the XTT assay described above) and the concentration of the test compound required for growth inhibition is determined. […]

Yes = molecular target: T11, Yes (Homo sapiens, UniProt P07947); experiment: kinase profiler, Yes; assay type: biochemical; details: 10 μM compound, 100 μM ATP, mean of % control
T11 construct: purchased Upstate Biotechnologies (kinase profiler service)
Protocol: as §1

PDK1 = molecular target: T12, PDK1 (Homo sapiens, UniProt O15530); experiment: kinase profiler, PDK1; assay type: biochemical; details: 10 μM compound, 100 μM ATP, mean of % control
T12 construct: purchased Upstate Biotechnologies (kinase profiler service)
T12 sequence (O15530 whole entry): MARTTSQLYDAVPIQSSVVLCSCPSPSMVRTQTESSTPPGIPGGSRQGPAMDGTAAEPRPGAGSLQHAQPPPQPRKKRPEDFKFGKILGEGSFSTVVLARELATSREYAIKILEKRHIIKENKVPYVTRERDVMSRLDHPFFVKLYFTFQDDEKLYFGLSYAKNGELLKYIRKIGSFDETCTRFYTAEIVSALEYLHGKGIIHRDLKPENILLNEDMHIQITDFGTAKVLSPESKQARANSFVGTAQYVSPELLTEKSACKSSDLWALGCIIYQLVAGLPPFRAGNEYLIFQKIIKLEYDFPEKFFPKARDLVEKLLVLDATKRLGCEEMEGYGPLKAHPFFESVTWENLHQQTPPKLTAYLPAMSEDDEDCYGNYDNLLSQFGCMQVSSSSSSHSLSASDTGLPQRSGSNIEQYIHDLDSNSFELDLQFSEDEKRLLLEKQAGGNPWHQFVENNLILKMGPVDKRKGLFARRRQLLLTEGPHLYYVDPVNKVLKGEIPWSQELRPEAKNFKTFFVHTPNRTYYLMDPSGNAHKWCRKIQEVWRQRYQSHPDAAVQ
Protocol: as §1

Ax1 = molecular target: T13, Ax1 (Homo sapiens, UniProt P30530); experiment: kinase profiler, Ax1; assay type: biochemical; details: 10 μM compound, 100 μM ATP, mean of % control
T13 construct: purchased Upstate Biotechnologies (kinase profiler service)
Protocol: as §1

Pim-1 = molecular target: T14, Pim-1 (Homo sapiens, UniProt P11309); experiment: kinase profiler, Pim-1; assay type: biochemical; details: 10 μM compound, 100 μM ATP, mean of % control
T14 construct: purchased Upstate Biotechnologies (kinase profiler service)
Protocol: as §1

CK2 = molecular target: T15, CK2 (Homo sapiens, UniProt P68400); experiment: kinase profiler, CK2; assay type: biochemical; details: 10 μM compound, 100 μM ATP, mean of % control
T15 construct: purchased Upstate Biotechnologies (kinase profiler service)
Protocol: as §1

MST2 = molecular target: T16, MST2 (Homo sapiens, UniProt Q13188); experiment: kinase profiler, MST2; assay type: biochemical; details: 10 μM compound, 100 μM ATP, mean of % control
T16 construct: purchased Upstate Biotechnologies (kinase profiler service)
Protocol: as §1

leukemia cell lines = experiment: NCI/DTP screen, leukemia cell lines; assay type: cell-based, human
Protocol: as §2, §3

Ret = molecular target: T17, Ret (Homo sapiens, UniProt P07949); experiment: kinase profiler, Ret; assay type: biochemical; details: 10 μM compound, 100 μM ATP, mean of % control
T17 construct: purchased Upstate Biotechnologies (kinase profiler service)
T17 sequence (P07949 29-1114): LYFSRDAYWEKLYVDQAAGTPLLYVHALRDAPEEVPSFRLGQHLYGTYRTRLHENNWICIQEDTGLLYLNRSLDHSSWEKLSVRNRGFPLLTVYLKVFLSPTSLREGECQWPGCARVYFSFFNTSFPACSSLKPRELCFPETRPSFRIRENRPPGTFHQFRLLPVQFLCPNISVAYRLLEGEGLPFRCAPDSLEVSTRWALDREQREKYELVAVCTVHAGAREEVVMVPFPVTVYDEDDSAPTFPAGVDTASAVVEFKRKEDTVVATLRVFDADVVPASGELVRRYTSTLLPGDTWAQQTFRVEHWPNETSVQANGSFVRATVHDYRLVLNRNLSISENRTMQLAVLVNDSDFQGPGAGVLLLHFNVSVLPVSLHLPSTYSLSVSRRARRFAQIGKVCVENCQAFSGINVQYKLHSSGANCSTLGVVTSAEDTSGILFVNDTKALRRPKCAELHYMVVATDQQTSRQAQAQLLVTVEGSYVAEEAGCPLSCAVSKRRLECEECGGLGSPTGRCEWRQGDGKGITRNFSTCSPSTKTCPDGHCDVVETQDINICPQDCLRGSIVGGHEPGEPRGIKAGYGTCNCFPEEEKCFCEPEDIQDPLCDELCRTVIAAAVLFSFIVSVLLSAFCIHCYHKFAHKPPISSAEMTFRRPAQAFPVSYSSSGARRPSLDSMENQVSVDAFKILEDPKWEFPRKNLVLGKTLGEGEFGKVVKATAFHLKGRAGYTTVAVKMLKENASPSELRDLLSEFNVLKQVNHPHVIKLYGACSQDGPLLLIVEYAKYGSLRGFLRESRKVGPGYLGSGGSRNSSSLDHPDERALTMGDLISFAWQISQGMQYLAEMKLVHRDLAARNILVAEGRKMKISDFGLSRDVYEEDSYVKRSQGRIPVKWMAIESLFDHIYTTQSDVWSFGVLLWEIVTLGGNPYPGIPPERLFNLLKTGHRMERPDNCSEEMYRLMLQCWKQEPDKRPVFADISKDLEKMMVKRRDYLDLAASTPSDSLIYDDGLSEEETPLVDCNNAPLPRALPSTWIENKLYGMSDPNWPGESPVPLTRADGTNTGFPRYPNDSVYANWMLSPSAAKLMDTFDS
Protocol: as §1

SAPK3 = molecular target: T18, SAPK3 (Homo sapiens, UniProt P53778); experiment: kinase profiler, SAPK3; assay type: biochemical; details: 10 μM compound, 100 μM ATP, mean of % control
T18 construct: purchased Upstate Biotechnologies (kinase profiler service)
T18 sequence (P53778 whole entry): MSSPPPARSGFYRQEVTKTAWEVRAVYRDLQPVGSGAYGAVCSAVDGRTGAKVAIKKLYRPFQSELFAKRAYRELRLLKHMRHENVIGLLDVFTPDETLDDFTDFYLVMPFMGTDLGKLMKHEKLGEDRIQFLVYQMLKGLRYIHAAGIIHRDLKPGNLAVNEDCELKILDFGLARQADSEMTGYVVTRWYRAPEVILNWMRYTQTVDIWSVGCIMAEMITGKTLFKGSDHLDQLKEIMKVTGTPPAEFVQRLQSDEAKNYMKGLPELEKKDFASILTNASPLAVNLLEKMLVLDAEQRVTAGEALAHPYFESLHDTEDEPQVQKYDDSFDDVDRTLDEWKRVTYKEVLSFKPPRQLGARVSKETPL
Protocol: as §1

CDK2/cyclinA = molecular target: T19, CDK2/cyclinA (Homo sapiens, UniProt P24941); experiment: kinase profiler, CDK2/cyclinA; assay type: biochemical; details: 10 μM compound, 100 μM ATP, mean of % control
T19 construct: purchased Upstate Biotechnologies (kinase profiler service)
Protocol: as §1

CDK1/cyclinB = molecular target: T20, CDK1/cyclinB (Homo sapiens, UniProt P06493); experiment: kinase profiler, CDK1/cyclinB; assay type: biochemical; details: 10 μM compound, 100 μM ATP, mean of % control
T20 construct: purchased Upstate Biotechnologies (kinase profiler service)
T20 sequence (P06493 whole entry): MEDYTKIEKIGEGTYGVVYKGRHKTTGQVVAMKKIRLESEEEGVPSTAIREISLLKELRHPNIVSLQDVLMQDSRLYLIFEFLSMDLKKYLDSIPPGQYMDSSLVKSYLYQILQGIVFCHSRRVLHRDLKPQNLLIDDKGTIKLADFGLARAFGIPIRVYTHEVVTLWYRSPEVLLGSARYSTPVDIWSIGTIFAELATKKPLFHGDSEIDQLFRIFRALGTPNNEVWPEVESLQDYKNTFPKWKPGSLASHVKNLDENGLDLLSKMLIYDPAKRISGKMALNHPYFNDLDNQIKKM
T20 sequence (P14635 whole entry partner): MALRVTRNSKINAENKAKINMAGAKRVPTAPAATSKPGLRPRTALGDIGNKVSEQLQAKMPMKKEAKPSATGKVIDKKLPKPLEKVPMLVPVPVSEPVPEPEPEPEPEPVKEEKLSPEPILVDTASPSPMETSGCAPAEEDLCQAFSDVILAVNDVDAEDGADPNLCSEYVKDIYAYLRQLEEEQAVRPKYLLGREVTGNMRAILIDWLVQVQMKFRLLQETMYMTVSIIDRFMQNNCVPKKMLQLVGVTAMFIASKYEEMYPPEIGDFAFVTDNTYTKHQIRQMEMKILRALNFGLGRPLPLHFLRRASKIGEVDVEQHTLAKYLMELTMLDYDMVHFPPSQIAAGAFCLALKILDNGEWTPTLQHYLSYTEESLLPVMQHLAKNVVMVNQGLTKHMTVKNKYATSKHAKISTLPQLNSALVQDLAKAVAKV
Protocol: as §1

CHK1 = molecular target: T21, CHK1 (Homo sapiens, UniProt O14757); experiment: kinase profiler, CHK1; assay type: biochemical; details: 10 μM compound, 100 μM ATP, mean of % control
T21 construct: purchased Upstate Biotechnologies (kinase profiler service)
Protocol: as §1

MEK1 = molecular target: T22, MEK1 (Homo sapiens, UniProt Q02750); experiment: kinase profiler, MEK1; assay type: biochemical; details: 10 μM compound, 100 μM ATP, mean of % control
T22 construct: purchased Upstate Biotechnologies (kinase profiler service)
Protocol: as §1

Q: `Brc1ccc2[nH]cc(-c3nc4c5ccccc5c5ccccc5c4[nH]3)c2c1` [Compound 45] was tested. Which activity at 10 µM (PKCδ) did it give?
A: The activity at 10 µM was 87%.

Q: What about the activity at 10 µM (EGFR) of the same compound?
A: Its activity at 10 µM is 105%.

Q: What about the activity at 10 µM (PDGFRα) of the same compound?
A: The activity at 10 µM was 117%.

Q: And the activity at 10 µM (SAPK2b)?
A: The activity at 10 µM was 80%.

Q: And the formation of vacuoles [1]?
A: The formation of vacuoles was “formation of large vacuoles within the cytoplasm”.

Q: And the activity at 10 µM (Fyn)?
A: Its activity at 10 µM is 103%.

Q: And the activity at 10 µM (Tie2)?
A: Its activity at 10 µM is 109%.

Q: And the activity at 10 µM (Abl)?
A: Its activity at 10 µM is 107%.

Q: What about the activity at 10 µM (PI3K-β) of the same compound?
A: Its activity at 10 µM is 11%.

Q: What about the activity at 10 µM (PAK2) of the same compound?
A: The activity at 10 µM was 89%.

Q: What about the activity at 10 µM (PKCζ) of the same compound?
A: Its activity at 10 µM is 96%.

Q: What about the GI50 (renal cancer cell lines) of the same compound?
A: Its GI50 is 1.3 µM.

Q: What about the activity at 10 µM (Yes) of the same compound?
A: The activity at 10 µM was 91%.

Q: What about the activity at 10 µM (PDK1) of the same compound?
A: The activity at 10 µM was 106%.

Q: And the activity at 10 µM (Ax1)?
A: Its activity at 10 µM is 100%.

Q: What about the activity at 10 µM (Pim-1) of the same compound?
A: The activity at 10 µM was 70%.

Q: And the activity at 10 µM (CK2)?
A: The activity at 10 µM was 91%.

Q: What about the activity at 10 µM (MST2) of the same compound?
A: Its activity at 10 µM is 77%.

Q: And the GI50 (leukemia cell lines; Homo sapiens, leukemia cell lines (FIG. 10B))?
A: The GI50 was 3.4 µM.

Q: And the “TGI (total growth inhibition)” value (leukemia cell lines; leukemia cell lines, 100 μM the highest concentration used (FIG. 10C))?
A: Its value is greater than 100 µM.

Q: What about the activity at 10 µM (Ret) of the same compound?
A: The activity at 10 µM was 82%.

Q: And the activity at 10 µM (SAPK3)?
A: Its activity at 10 µM is 54%.

Q: And the activity at 10 µM (CDK2/cyclinA)?
A: The activity at 10 µM was 95%.

Q: And the activity at 10 µM (CDK1/cyclinB)?
A: Its activity at 10 µM is 156%.

Q: What about the activity at 10 µM (CHK1) of the same compound?
A: Its activity at 10 µM is 111%.

Q: And the activity at 10 µM (MEK1)?
A: The activity at 10 µM was 88%.
